According to US4217357A, “Inhibition of thromboxane synthetase with 3-(imidazol-1-ylalkyl)indoles” (Pfizer Inc., priority 1978, dated 1980):

Columns and labels:
Type in all cases: biochemical
thromboxane synthetase = biological target: T1, thromboxane synthetase (Homo sapiens, UniProt P24557); assay: Thromboxane A2 (TxA2) synthetase in vitro enzyme assay; conditions: for IC50: indomethacin-pretreated human platelet microsomes, PGH2, 0° C., 2 min, 5 min pre-incubation, read-out: Concentration causing 50% inhibition of (1) thromboxane synthetase; for Ratio of (3) to (1): prostacyclin synthetase / thromboxane synthetase 50% inhibition concentrations
T1 construct: Indomethacin-pretreated human platelet microsomes; from tissue; host or cells: human platelet microsomes
T1 sequence (P24557 1-533): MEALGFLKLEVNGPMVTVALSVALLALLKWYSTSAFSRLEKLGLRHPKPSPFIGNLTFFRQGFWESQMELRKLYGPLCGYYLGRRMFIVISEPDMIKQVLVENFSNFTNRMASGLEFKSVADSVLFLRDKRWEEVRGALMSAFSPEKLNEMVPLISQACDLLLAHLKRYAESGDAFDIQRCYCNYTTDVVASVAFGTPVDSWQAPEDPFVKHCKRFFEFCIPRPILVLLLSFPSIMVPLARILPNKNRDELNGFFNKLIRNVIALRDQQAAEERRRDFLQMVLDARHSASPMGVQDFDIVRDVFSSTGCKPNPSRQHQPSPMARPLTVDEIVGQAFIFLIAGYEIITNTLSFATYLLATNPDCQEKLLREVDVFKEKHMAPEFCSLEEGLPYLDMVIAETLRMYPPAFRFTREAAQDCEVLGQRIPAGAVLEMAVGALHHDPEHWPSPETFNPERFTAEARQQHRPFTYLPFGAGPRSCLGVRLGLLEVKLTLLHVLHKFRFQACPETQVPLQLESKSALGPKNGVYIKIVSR
Method: Indomethacin-pretreated human platelet microsomes (Science, 1976, 193, 163) are incubated with PGH2 (produced as described in test No. 1) at 0° C. for a period of two minutes, and aliquots of the reaction mixture are then superfused over two rabbit aorta spirals which are separated by a delay coil (2 min.). The latter is required in order to allow for the selective decay of the more unstable thromboxane A2 (Proc. Nat. Acad. Sci., 1975, 72, 2994), thereby enabling separate measurement of the increased isometric tension due to the TxA2 formed and the PGH2 remaining to take place. The test compound is then pre-incubated with the enzyme for a period of five minutes, and its ability to inhibit the thromboxane synthetase enzyme is measured as its reduction of the TxA2 component of the isometric tension.

prostacyclin synthetase = biological target: T2, prostacyclin synthetase (Sus scrofa, UniProt A0A5G2QT35); assay: Prostacyclin (PGI2) synthetase in vitro enzyme assay; conditions: pig aorta microsomes, PGH2, 22° C., 30 seconds; 5 min pre-incubation; read-out: Concentration causing 50% inhibition of (3) prostacyclin synthetase
T2 construct: Pig aorta microsomes; from tissue; host or cells: pig aorta microsomes
T2 sequence (A0A5G2QT35 1-497): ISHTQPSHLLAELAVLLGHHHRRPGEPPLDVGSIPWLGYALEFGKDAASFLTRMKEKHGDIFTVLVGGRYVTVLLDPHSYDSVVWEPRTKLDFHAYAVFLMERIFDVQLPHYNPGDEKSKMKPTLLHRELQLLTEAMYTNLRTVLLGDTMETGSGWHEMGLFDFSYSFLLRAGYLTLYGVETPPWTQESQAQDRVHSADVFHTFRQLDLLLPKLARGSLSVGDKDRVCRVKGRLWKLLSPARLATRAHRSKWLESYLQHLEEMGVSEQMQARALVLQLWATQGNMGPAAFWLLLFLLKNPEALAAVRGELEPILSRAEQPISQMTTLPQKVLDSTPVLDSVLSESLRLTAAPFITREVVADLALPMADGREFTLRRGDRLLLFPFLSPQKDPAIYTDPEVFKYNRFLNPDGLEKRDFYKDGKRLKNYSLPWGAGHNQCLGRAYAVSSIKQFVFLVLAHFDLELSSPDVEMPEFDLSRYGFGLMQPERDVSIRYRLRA

cyclo-oxygenase = biological target: T3, cyclo-oxygenase (Ovis aries, UniProt P05979); assay: Cyclo-oxygenase in vitro enzyme assay; conditions: ram seminal vesicle microsomes, arachidonic acid 100 μM, 22° C., 1 min; 5 min pre-incubation; read-out: Concentration causing 50% inhibition of (2) cyclo-oxygenase
T3 construct: Ram seminal vesicle microsomes; from tissue; host or cells: ram seminal vesicle microsomes
T3 sequence (P05979 25-600): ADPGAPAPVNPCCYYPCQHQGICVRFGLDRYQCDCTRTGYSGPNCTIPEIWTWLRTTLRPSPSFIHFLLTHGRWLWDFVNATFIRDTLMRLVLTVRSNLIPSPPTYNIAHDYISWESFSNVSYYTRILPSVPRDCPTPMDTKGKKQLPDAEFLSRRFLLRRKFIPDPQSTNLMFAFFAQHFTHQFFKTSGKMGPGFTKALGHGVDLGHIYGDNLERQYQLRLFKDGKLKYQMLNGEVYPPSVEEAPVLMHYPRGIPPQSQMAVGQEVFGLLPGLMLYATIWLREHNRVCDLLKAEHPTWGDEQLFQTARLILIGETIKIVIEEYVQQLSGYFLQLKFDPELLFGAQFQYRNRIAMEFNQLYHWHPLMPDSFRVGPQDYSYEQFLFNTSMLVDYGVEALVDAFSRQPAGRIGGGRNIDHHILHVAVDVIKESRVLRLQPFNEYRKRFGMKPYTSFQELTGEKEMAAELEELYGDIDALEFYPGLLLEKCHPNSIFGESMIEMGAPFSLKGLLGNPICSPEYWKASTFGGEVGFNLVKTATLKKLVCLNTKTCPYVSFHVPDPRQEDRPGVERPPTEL
Method: The effect of the compounds of the formula (I) on the thromboxane synthetase enzyme, and the prostacyclin synthetase and cyclo-oxygenase enzymes has been measured by the following in vitro enzyme assay tests:
Ram seminal vesicle microsomes (Biochemistry, 1971, 10, 2372) are incubated with arachidonic acid (100 μM) at 22° C. for a period of one minute so as to produce PGH2, and aliquots of this reaction mixture are then injected into a stream of Krebs-bicarbonate at 37° C. [containing a mixture of antagonists (Nature, […], 218, 1135) and indomethacin (Brit. J. Pharmacol., 1972, 45, 451)] which is superfusing a spirally-cut rabbit aorta strip (Nature, 1969, 223, 29). The ability of a compound to inhibit the enzyme is measured by comparing the increases in isometric tension produced by PGH2 in the absence of the test compound and again, following pre-incubation of the enzyme with the test compound for a period of five minutes.

In the case of `c1ccc2c(Cn3ccnc3)c[nH]c2c1` [*, 3-(imidazol-1-ylmethyl)-indole], the IC50 (thromboxane synthetase) is reported as 30 nM, the “Ratio of (3) to (1)” value (thromboxane synthetase) is reported as 22,000 and the IC50 (prostacyclin synthetase) is reported as 650 µM. For the same molecule, the IC50 (cyclo-oxygenase) was over 1000 µM.
`CC(C)c1[nH]c2ccccc2c1Cn1ccnc1` [Example I, 3-(imidazol-1-ylmethyl)-2-isopropylindole] was tested, and the IC50 (thromboxane synthetase) was 17 nM, the “Ratio of (3) to (1)” value (thromboxane synthetase) was > 6,000 and the IC50 (prostacyclin synthetase) was over 100 µM. For the same molecule, the IC50 (cyclo-oxygenase) was over 100 µM.
In the case of `CC(C)(C)c1[nH]c2ccccc2c1Cn1ccnc1` [Example VI, 3-(imidazol-1-ylmethyl)-2-tert-butylindole], the IC50 (cyclo-oxygenase) is reported as over 100 µM.
For `CC(c1c[nH]c2ccccc12)n1ccnc1` (stereo not drawn) [Example VII, 3-[α-(imidazol-1-yl)ethyl]indole], the IC50 (thromboxane synthetase) was 30 nM, the “Ratio of (3) to (1)” value (thromboxane synthetase) was 3,300 and the IC50 (prostacyclin synthetase) was over 100 µM.
`O=C(c1cccc(C(F)(F)F)c1)n1cc(Cn2ccnc2)c2ccccc21` [Example XLV, 3-(imidazol-1-ylmethyl)-1-(m-trifluoromethylbenzoyl)indole] was tested, and the IC50 (thromboxane synthetase) was 100 nM.
With `CC(=O)n1cc(Cn2ccnc2)c2ccccc21` [Example XLVI, 1-acetyl-3-(imidazol-1-ylmethyl)indole] the IC50 (thromboxane synthetase) was 1.2 nM, the “Ratio of (3) to (1)” value (thromboxane synthetase) was 57,000 and the IC50 (prostacyclin synthetase) was 68 µM.
With `Oc1ccc2[nH]cc(Cn3ccnc3)c2c1` [Example XLVII, 5-hydroxy-3-(imidazol-1-ylmethyl)-indole] the IC50 (thromboxane synthetase) was 2.3 nM, the “Ratio of (3) to (1)” value (thromboxane synthetase) was 3,500 and the IC50 (prostacyclin synthetase) was 8 µM.
With `c1ccc(COc2ccc3[nH]cc(Cn4ccnc4)c3c2)cc1` [Example XXV, 5-benzyloxy-3-(imidazol-1-ylmethyl)indole] the IC50 (thromboxane synthetase) was 260 nM, the “Ratio of (3) to (1)” value (thromboxane synthetase) was 140 and the IC50 (prostacyclin synthetase) was 37 µM.
`Cc1ccc2[nH]cc(Cn3ccnc3)c2c1` [XI, 3-(imidazol-1-ylmethyl)-5-methylindole] was tested, and the IC50 (thromboxane synthetase) was 58 nM, the “Ratio of (3) to (1)” value (thromboxane synthetase) was 600 and the IC50 (prostacyclin synthetase) was 35 µM.
In the case of `c1ccc2c(Cn3ccnc3)c(C34CC5CC(CC(C5)C3)C4)[nH]c2c1` [XIV], the IC50 (thromboxane synthetase) is reported as 2.5 nM, the “Ratio of (3) to (1)” value (thromboxane synthetase) is reported as 400 and the IC50 (prostacyclin synthetase) is reported as 1 µM.
In the case of `COc1ccc(-c2[nH]c3ccccc3c2Cn2ccnc2)cc1` [XIX, 2-(p-anisyl)-3-(imidazol-1-ylmethyl)indole], the IC50 (thromboxane synthetase) is reported as 120 nM.
With `O=C(C1CC1)n1cc(Cn2ccnc2)c2ccccc21` [XLI, 1-cyclopropylcarbonyl-3-(imidazol-1-yl-methyl)indole] the IC50 (thromboxane synthetase) was 4.3 nM.
In the case of `Cc1ccc(C(=O)n2cc(Cn3ccnc3)c3ccccc32)cc1` [XLII, 3-(imidazol-1-ylmethyl)-1-(p-methylbenzoyl)indole], the IC50 (thromboxane synthetase) is reported as 0.41 nM, the “Ratio of (3) to (1)” value (thromboxane synthetase) is reported as 49,000 and the IC50 (prostacyclin synthetase) is reported as 20 µM.
`COc1ccc(C(=O)n2cc(Cn3ccnc3)c3ccccc32)cc1` [XLIII, 3-(imidazol-1-ylmethyl)-1-(p-methoxybenzoyl)indole] was tested, and the IC50 (thromboxane synthetase) was 1.7 nM, the “Ratio of (3) to (1)” value (thromboxane synthetase) was > 60,000 and the IC50 (prostacyclin synthetase) was over 100 µM.
`Cc1ccccc1-c1[nH]c2ccccc2c1Cn1ccnc1` [XV, 3-(imidazol-1-ylmethyl)-2-(o-tolyl)indole] was tested, and the IC50 (thromboxane synthetase) was 0.014 nM, the “Ratio of (3) to (1)” value (thromboxane synthetase) was 10^6 and the IC50 (prostacyclin synthetase) was 14 µM.
With `COc1ccccc1-c1[nH]c2ccccc2c1Cn1ccnc1` [XVIII, 2-(o-anisyl)-3-(imidazol-1-ylmethyl)indole] the IC50 (thromboxane synthetase) was 0.38 nM, the “Ratio of (3) to (1)” value (thromboxane synthetase) was 3,700 and the IC50 (prostacyclin synthetase) was 1.4 µM.
For `c1ccc(Cc2[nH]c3ccccc3c2Cn2ccnc2)cc1` [XXII, 2-benzyl-3-(imidazol-1-ylmethyl)indole], the IC50 (thromboxane synthetase) was 1 nM, the “Ratio of (3) to (1)” value (thromboxane synthetase) was > 10^5 and the IC50 (prostacyclin synthetase) was over 100 µM.
`CN(C)c1ccc2[nH]cc(Cn3ccnc3)c2c1` [XXIII, 5-dimethylamino-3-(imidazol-1-ylmethyl)indole] was tested, and the IC50 (thromboxane synthetase) was 64 nM, the “Ratio of (3) to (1)” value (thromboxane synthetase) was > 1,500 and the IC50 (prostacyclin synthetase) was over 100 µM.
In the case of `FC(F)(F)c1ccc2c(Cn3ccnc3)c[nH]c2c1` [XXIV, 3-(imidazol-1-ylmethyl)-6-trifluoromethylindole], the IC50 (thromboxane synthetase) is reported as 200 nM, the “Ratio of (3) to (1)” value (thromboxane synthetase) is reported as 500 and the IC50 (prostacyclin synthetase) is reported as 100 µM.
In the case of `CCn1cc(Cn2ccnc2)c2ccccc21` [XXIX, 1-ethyl-3-(imidazol-1-ylmethyl)indole], the IC50 (thromboxane synthetase) is reported as 1.4 nM, the “Ratio of (3) to (1)” value (thromboxane synthetase) is reported as > 70,000 and the IC50 (prostacyclin synthetase) is reported as over 100 µM.
For `Clc1ccc(-c2[nH]c3ccccc3c2Cn2ccnc2)cc1` [XXI], the IC50 (thromboxane synthetase) was 110 nM, the “Ratio of (3) to (1)” value (thromboxane synthetase) was over 900 and the IC50 (prostacyclin synthetase) was over 100 µM.
`CC(c1cn(C)c2ccccc12)n1ccnc1` (stereo not drawn) [XXVIII, 3-[α-(imidazol-1-yl)ethyl]-1-methylindole] showed an IC50 (thromboxane synthetase) of 33 nM.
In the case of `CCCn1cc(Cn2ccnc2)c2ccccc21` [XXX, 3-(imidazol-1-ylmethyl)-1-(n-propyl)indole], the IC50 (thromboxane synthetase) is reported as 4 nM, the “Ratio of (3) to (1)” value (thromboxane synthetase) is reported as > 2,500 and the IC50 (prostacyclin synthetase) is reported as over 100 µM.
With `C=CCn1cc(Cn2ccnc2)c2ccccc21` [XXXI, 1-allyl-3-(imidazol-1-ylmethyl)indole] the IC50 (thromboxane synthetase) was 0.058 nM, the “Ratio of (3) to (1)” value (thromboxane synthetase) was > 1.7×10^6 and the IC50 (prostacyclin synthetase) was over 100 µM.
`C=CCn1cc(C(C)n2ccnc2)c2ccccc21` (stereo not drawn) [XXXII, 1-allyl-3-[α-(imidazol-1-yl)ethyl]indole] showed an IC50 (thromboxane synthetase) of 36 nM.
For `Clc1ccc(Cn2cc(Cn3ccnc3)c3ccccc32)cc1` [XXXIX, 1-(p-chlorobenzyl)-3-(imidazol-1-ylmethyl)indole], the IC50 (thromboxane synthetase) was 86 nM, the “Ratio of (3) to (1)” value (thromboxane synthetase) was 210 and the IC50 (prostacyclin synthetase) was 18 µM.
In the case of `C=C(C)Cn1cc(Cn2ccnc2)c2ccccc21` [XXXV, 3-(imidazol-1-yl-methyl)-1-methallylindole], the IC50 (thromboxane synthetase) is reported as 3.3 nM, the “Ratio of (3) to (1)” value (thromboxane synthetase) is reported as 300 and the IC50 (prostacyclin synthetase) is reported as 1 µM.
With `c1ccc2c(c1)c(Cn1ccnc1)cn2CC1CC1` [XXXVI, 1-cyclopropylmethyl-3-(imidazol-1-ylmethyl)indole] the IC50 (thromboxane synthetase) was 11 nM, the “Ratio of (3) to (1)” value (thromboxane synthetase) was 9,000 and the IC50 (prostacyclin synthetase) was 100 µM.
`COCCn1cc(Cn2ccnc2)c2ccccc21` [XXXVII, 3-(imidazol-1-ylmethyl)-1-(β-methoxyethyl)indole] was tested, and the IC50 (thromboxane synthetase) was 45 nM, the “Ratio of (3) to (1)” value (thromboxane synthetase) was > 2,200 and the IC50 (prostacyclin synthetase) was over 100 µM.
With `CN(C)CCn1cc(Cn2ccnc2)c2ccccc21` [XXXVIII, 1-(β-dimethylaminoethyl)-3-(imidazol-1-ylmethyl)indole] the IC50 (thromboxane synthetase) was 26 nM, the “Ratio of (3) to (1)” value (thromboxane synthetase) was > 3,800 and the IC50 (prostacyclin synthetase) was over 100 µM.
